Assay results taken from patent publication US6759547B1, “5,6,7,8-tetrahydronaphthalen-2-yl 2,6-difluoroheptatrienoic acid derivatives having serum glucose reducing activity” (Allergan, Inc., priority 2003, dated 2004).

Legend:
RARα = biological target: T1, RARα (Homo sapiens, UniProt P10276); experiment: chimeric receptor transactivation assay, RARα; assay type: cell-based
T1 sequence (P10276 183-417 limits assumed): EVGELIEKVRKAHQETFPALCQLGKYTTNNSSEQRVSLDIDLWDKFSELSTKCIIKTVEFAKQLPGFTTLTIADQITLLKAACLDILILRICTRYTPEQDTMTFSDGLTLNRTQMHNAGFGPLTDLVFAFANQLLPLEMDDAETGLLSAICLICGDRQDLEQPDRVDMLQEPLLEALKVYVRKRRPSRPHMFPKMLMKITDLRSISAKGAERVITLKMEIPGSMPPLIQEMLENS
Excerpt: (§1) One such assay is a chimeric receptor transactivation assay which tests for agonist-like activity in the RARα RARβ and RARγ receptor subtypes, and which is based on work published by Feigner P. L. and Holm M. (1989) Focus, 112 is described in detail in U.S. Pat. No. 5,455,265. The specification of U.S. Pat. No. 5,455,265 is hereby expressly incorporated by reference.
(§2) Table 1 discloses the activity of certain exemplary compounds of the invention in the above-described receptor transactivation and binding assays. Particularly, the transactivation data pertaining to activation of the RAR receptors were obtained in the chimeric assay, and the transactivation data pertaining to the activation of RXR receptors were obtained in the holoreceptor assay.

RARγ = biological target: T2, RARγ (Homo sapiens, UniProt P13631); experiment: chimeric receptor transactivation assay, RARγ; assay type: cell-based
T2 sequence (P13631 185-419 limits assumed): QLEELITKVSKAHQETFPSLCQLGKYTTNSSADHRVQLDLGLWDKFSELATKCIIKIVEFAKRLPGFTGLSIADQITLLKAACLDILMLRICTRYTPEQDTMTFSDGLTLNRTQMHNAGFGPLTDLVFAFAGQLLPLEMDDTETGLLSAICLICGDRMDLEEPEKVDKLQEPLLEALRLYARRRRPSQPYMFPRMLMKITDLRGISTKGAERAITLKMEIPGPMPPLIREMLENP
Excerpt: as §1, §2

RARβ = biological target: T3, RARβ (Homo sapiens, UniProt P10826); experiment: ligand binding assay, RARβ; settings: read-out: RAR Bind. K1 β
T3 sequence (P10826 1-455): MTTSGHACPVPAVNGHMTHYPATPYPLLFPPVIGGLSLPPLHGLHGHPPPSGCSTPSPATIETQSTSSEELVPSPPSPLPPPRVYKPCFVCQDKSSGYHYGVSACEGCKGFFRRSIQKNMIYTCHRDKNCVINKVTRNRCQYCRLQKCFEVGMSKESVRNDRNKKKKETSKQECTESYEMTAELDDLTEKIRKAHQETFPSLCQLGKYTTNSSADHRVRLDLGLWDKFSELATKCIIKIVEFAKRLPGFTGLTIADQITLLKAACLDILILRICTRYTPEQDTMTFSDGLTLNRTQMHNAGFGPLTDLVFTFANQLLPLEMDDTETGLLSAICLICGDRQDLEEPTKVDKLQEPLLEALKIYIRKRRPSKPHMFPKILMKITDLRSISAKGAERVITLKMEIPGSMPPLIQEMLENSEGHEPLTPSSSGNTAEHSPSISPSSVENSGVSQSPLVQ
Excerpt: The results obtained in this assay are expressed in EC50 numbers, as they are also in the chimeric receptor transactivation assay. The results of the ligand binding assay are expressed in Ki numbers.

RXRγ = biological target: T4, RXRγ (Homo sapiens, UniProt P48443); experiment: holoreceptor transactivation assay, RXRγ; assay type: cell-based; settings: for RXR Trans. efficacy γ: efficacy as a percentage compared to the standard compound; for EC50: holoreceptor assay, read-out: RXR Trans. EC50 γ
T4 construct: expressed in transfected cells
T4 sequence (P48443 1-463): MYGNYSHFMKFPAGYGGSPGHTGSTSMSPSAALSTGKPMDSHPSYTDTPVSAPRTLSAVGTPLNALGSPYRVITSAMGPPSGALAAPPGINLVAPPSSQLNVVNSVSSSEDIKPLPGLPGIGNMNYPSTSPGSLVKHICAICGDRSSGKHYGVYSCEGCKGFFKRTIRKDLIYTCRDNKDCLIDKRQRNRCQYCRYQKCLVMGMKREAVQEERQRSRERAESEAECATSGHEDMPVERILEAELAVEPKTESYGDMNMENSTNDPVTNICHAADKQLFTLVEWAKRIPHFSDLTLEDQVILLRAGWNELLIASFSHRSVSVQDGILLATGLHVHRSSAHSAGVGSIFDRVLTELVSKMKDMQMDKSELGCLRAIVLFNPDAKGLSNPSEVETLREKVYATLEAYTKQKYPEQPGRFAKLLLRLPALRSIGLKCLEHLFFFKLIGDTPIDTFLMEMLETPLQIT
Excerpt: Particularly, the transactivation data pertaining to activation of the RAR receptors were obtained in the chimeric assay, and the transactivation data pertaining to the activation of RXR receptors were obtained in the holoreceptor assay.

[1] = tested on: female diabetic db/db mice; experiment: serum glucose, triglyceride and thyroxine levels in db/db mice; assay type: in vivo; settings: female db/db mice, Compound 27 50 mg/kg
Experimental: An assay described below tests the effect of compounds of the invention on serum glucose, tryglyceride and thyroxine levels in female 9-10 weeks old db/db mice.
Blood samples (70 μl) were taken by orbital bleeding at 11:00 AM on day 0 (pre-treatment), day 3, and day 6. On day 7, a blood sample (700 μl) was taken at 11:00 AM and the animals were sacrificed. Glucose, triglyceride and thyroxine (T4) levels were determined on a Boehringer Manheim Hatachi Clinical Chemistry Analyzer using standard protocols provided by the manufacturer and reagents that were supplied in commercially available kits (glucose and T4; Boehringer Manheim; triglycerides: Roche Diagnostics). Seven animals were treated in each group.

[2] = efficacy as a percentage compared to the standard compound
[3] = day 0 (pre-treatment), groups: standard compound 5 mg/kg
[4] = oral gavage daily, standard compound 5 mg/kg

| EC50 (RARα; chimeric assay, read-out: RAR Trans. EC50 α) [nM] | RAR Trans. efficacy α (RARα; [2]) [%] | EC50 (RARγ; chimeric assay, read-out: RAR Trans. EC50 γ) [nM] | RAR Trans. efficacy γ (RARγ; [2]) [%] | Ki (RARβ) [nM] | RXR Trans. efficacy γ (RXRγ) [%] | EC50 (RXRγ) [nM] | T4 Day 7 ([1]; oral gavage daily for seven days, standard compound 5 mg/kg) [µg/dL] | Structure (SMILES) | Glucose Day 0 [1, 3] [mg/dL] | Triglycerides Day 0 [1, 3] [mg/dL] | Glucose Day 3, 3 h [1, 4] [mg/dL] | Glucose Day 6, 3 h [1, 4] [mg/dL] | Triglycerides Day 3, 3 h [1, 4] [mg/dL] |
| --- | --- | --- | --- | --- | --- | --- | --- | --- | --- | --- | --- | --- | --- |
| 5 | 12 | 180 | 28 | 1720 |  |  |  | CCCOc1cc2c(cc1\C(C)=C(F)/C=C/C(C)=C(\F)C(=O)O)C(C)(C)CCC2(C)C [Compound 11, (2Z,4E,6E)-2,6-Difluoro-3-methyl-7-(5,5,8,8-tetramethyl-3-propoxy-5,6,7,8-tetrahydro-naphthalen-2-yl)-octa-2,4,6-trienoic acid] |  |  |  |  |  |
|  |  |  |  | 590 | 36 | 8 |  | CC/C(=C(F)/C=C/C(C)=C(\F)C(=O)O)c1cc2c(cc1OCOC)C(C)(C)CCC2(C)C [Compound 21, (2Z,4E,6E)-2,6-Difluoro-7-(3-methoxymethoxy-5,5,8,8-tetramethyl-5,6,7,8-tetrahydro-naphthalen-2-yl)-3-methyl-nona-2,4,6-trienoic acid] |  |  |  |  |  |
|  |  |  |  | 1800 | 23 | 3 | 3.9 ± 0.9 | CCOc1cc2c(cc1\C(CC)=C(F)/C=C/C(C)=C(\F)C(=O)O)C(C)(C)CCC2(C)C [Compound 27, (2Z,4E,6E)-7-(3-Ethoxy-5,5,8,8-tetramethyl-5,6,7,8-tetrahydro-naphthalen-2-yl)-2,6-difluoro-3-methyl-nona-2,4,6-trienoic acid] | 384 | 152 | 290 | 225 | 106 |
